Reference: ChEMBL document CHEMBL2062500, “Anti-inflammatory sesquiterpene lactones from the flower of Vernonia cinerea” (Bioorg Med Chem Lett, 2012)
The source made the active and inactive calls. The rule behind the calls is not given here.

What was measured:
[1] = (§1) Inhibition of TNFalpha-induced NF-kappaB activity expressed in human HEK 293 cells after 6 hrs by luciferase reporter gene assay; assay type: cell-based; conditions: HEK293, 6 h
[2] = Cytotoxicity in mouse RAW264.7 cells assessed as cell survival at 50 uM; assay type: cell-based; conditions: read-out: Survival
HEK293 [3] = test: Inhibition of TNFalpha-induced NF-kappaB activity expressed in human HEK 293 cells at 50 uM after 6 hrs by luciferase reporter gene assay; assay type: cell-based
RAW264.7 [4] = test: Antiinflammatory activity against LPS-induced NO production in mouse RAW264.7 cells assessed as reduction in nitrite level at 50 uM preincubated for 15 mins prior to LPS treatment by Griess method; assay type: functional
RAW264.7 [5] = test: Antiinflammatory activity against LPS-induced NO production in mouse RAW264.7 cells assessed as reduction in nitrite level preincubated for 15 mins prior to LPS treatment by Griess method; assay type: functional, cell-based
[6] = Cytotoxicity in human HEK293 cells assessed as survival at 50 uM; assay type: cell-based; conditions: read-out: Survival
HEK293 [7] = test: as §1; assay type: cell-based

Question: Which IC50 [1] does the source give for `C=C(C)C(=O)O[C@H]1C[C@@H](C)[C@]2(O)CC[C@](C)(/C=C3/OC(=O)C(COC(C)=O)=C31)O2` here?
Answer: 5.2 µM

Question: And the viability at 50 µM [2]?
Answer: 31.1%

Question: What about the inhibition (HEK293 [3]) of the same compound?
Answer: 95.8%

Question: And the inhibition at 50 µM (RAW264.7 [4])?
Answer: 99.2%

Question: What about the IC50 (RAW264.7 [5]) of the same compound?
Answer: 6.6 µM

Question: And the viability at 50 µM [6]?
Answer: 95.1%

Question: For `C[C@@H]1C[C@H](O)C2=C(CO)C(=O)O/C2=C/[C@@]2(C)CC[C@]1(O)O2`, which IC50 [1] is on record?
Answer: 1.9 µM

Question: What about the viability at 50 µM [2] of the same compound?
Answer: 121%

Question: What about the inhibition (HEK293 [3]) of the same compound?
Answer: 65.6%

Question: And the inhibition at 50 µM (RAW264.7 [4])?
Answer: 82.6%

Question: What about the IC50 (RAW264.7 [5]) of the same compound?
Answer: 24.7 µM

Question: What about the viability at 50 µM [6] of the same compound?
Answer: 100%

Question: What does the source list for `CC(=O)OCC1=C2/C(=C\[C@@]3(C)CC[C@](O)(O3)[C@H](C)C[C@@H]2O)OC1=O`?
Answer: IC50 [1]: 10.2 µM; viability at 50 µM [2]: 18%; inhibition (HEK293 [3]): 90.3%; inhibition at 50 µM (RAW264.7 [4]): 99.3%; IC50 (RAW264.7 [5]): 2.7 µM; viability at 50 µM [6]: 55%

Question: For `CNC(=N)NCCC[C@H](N)C(=O)O`, which IC50 (RAW264.7 [5]) is on record?
Answer: 25.1 µM

Question: For `Cc1ccc(S(=O)(=O)N[C@@H](Cc2ccccc2)C(=O)CCl)cc1` [TPCK], which IC50 [1] is on record?
Answer: 3.8 µM

Question: With `C/C=C(\C)C(=O)O[C@H]1C[C@@H](C)[C@]2(OC)CC[C@](C)(/C=C3/OC(=O)C(COC(C)=O)=C31)O2` as the compound, how does the IC50 [1] read?
Answer: 12.8 µM

Question: And the viability at 50 µM [2]?
Answer: 5.4%

Question: And the inhibition (HEK293 [3])?
Answer: 97.6%

Question: And the inhibition at 50 µM (RAW264.7 [4])?
Answer: 99%

Question: What about the IC50 (RAW264.7 [5]) of the same compound?
Answer: 1.2 µM

Question: And the viability at 50 µM [6]?
Answer: 16.5%

Question: With `Cc1ccc(S(=O)(=O)/C=C/C#N)cc1` as the compound, how does the IC50 [1] read?
Answer: 2 µM

Question: Which results are given for `C=C(C)C(=O)O[C@H]1C[C@@H](C)[C@]2(OC)CC[C@](C)(/C=C3/OC(=O)C(COC(C)=O)=C31)O2`?
Answer: IC50 [1]: 13.6 µM; viability at 50 µM [2]: 6.3%; inhibition (HEK293 [3]): 94.2%; inhibition at 50 µM (RAW264.7 [4]): 98.8%; IC50 (RAW264.7 [5]): 1.5 µM; viability at 50 µM [6]: 39.1%

Question: Which IC50 [1] does the source give for `C/C=C(\C)C(=O)O[C@H]1C[C@@H](C)[C@]2(OC)CC[C@](C)(/C=C3/OC(=O)C(CO)=C31)O2` here?
Answer: 1.6 µM

Question: What about the viability at 50 µM [2] of the same compound?
Answer: 15.6%

Question: And the inhibition (HEK293 [3])?
Answer: 94.1%

Question: What about the inhibition at 50 µM (RAW264.7 [4]) of the same compound?
Answer: 99.8%

Question: And the IC50 (RAW264.7 [5])?
Answer: 2.4 µM

Question: And the viability at 50 µM [6]?
Answer: 9.3%

Question: With `C/C=C(\C)C(=O)O[C@H]1C[C@@H](C)[C@]2(O)CC[C@](C)(/C=C3/OC(=O)C(CO)=C31)O2` (relative stereo) as the compound, how does the IC50 [1] read?
Answer: 3.1 µM

Question: What about the viability at 50 µM [2] of the same compound?
Answer: 32.2%

Question: What about the inhibition (HEK293 [3]) of the same compound?
Answer: 98.6%

Question: What about the inhibition at 50 µM (RAW264.7 [4]) of the same compound?
Answer: 99.8%

Question: And the IC50 (RAW264.7 [5])?
Answer: 5.7 µM

Question: And the viability at 50 µM [6]?
Answer: 87.6%

Question: Which inhibition (HEK293 [7]) does the source give for `CO[C@]12CC[C@](C)(/C=C3/OC(=O)C(CO)=C3[C@@H](O)C[C@H]1C)O2` here?
Answer: inactive

Question: What about the viability at 50 µM [2] of the same compound?
Answer: 134%

Question: What about the inhibition (HEK293 [3]) of the same compound?
Answer: 33.4%

Question: What about the inhibition at 50 µM (RAW264.7 [4]) of the same compound?
Answer: 84.2%

Question: What about the IC50 (RAW264.7 [5]) of the same compound?
Answer: 28.1 µM

Question: What about the viability at 50 µM [6] of the same compound?
Answer: 91.9%

Question: What does the source list for `C/C=C(\C)C(=O)O[C@H]1C[C@@H](C)[C@]2(O)CC[C@](C)(/C=C3/OC(=O)C(COC(C)=O)=C31)O2`?
Answer: IC50 [1]: 0.6 µM; viability at 50 µM [2]: 31.1%; inhibition (HEK293 [3]): 99.6%; inhibition at 50 µM (RAW264.7 [4]): 98%; IC50 (RAW264.7 [5]): 2 µM; viability at 50 µM [6]: 102%
